# Values quoted from earlier work as cited in US8329742B2, “Macrocyclic compounds useful as pharmaceuticals” (EISAI Co., Ltd., priority 2002, dated 2012).
# How the values were obtained:
# [1] = susceptible to enone isomerization in mouse and human plasma
# Map/Erk kinase (MEK) = Map/Erk kinase (MEK) (Homo sapiens, UniProt Q02750)
# Map/Erk kinase (MEK), sequence (Q02750 whole entry): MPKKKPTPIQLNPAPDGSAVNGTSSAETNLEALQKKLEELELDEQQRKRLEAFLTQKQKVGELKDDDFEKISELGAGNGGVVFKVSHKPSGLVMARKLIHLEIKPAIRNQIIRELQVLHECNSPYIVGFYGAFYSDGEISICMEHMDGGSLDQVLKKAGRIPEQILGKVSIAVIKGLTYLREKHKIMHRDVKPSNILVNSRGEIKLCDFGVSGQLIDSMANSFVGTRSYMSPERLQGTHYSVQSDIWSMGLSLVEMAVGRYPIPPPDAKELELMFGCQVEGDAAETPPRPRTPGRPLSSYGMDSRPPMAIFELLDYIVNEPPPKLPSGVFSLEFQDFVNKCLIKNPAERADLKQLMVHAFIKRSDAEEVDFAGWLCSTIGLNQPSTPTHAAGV
smiles,measurement,setting,value
COc1cc(O)c2c(c1)/C=C/C[C@H](O)[C@H](O)C(=O)/C=C\C[C@H](C)OC2=O [Compound F152],biological stability,[1],biologically unstable
same,inhibition of Map/Erk kinase (MEK),Map/Erk kinase (MEK),inhibit
